ChEMBL document CHEMBL1151757, “Synthesis, radiosynthesis, and biological evaluation of fluorine-18-labeled 2beta-carbo(fluoroalkoxy)-3beta-(3'-((Z)-2-haloethenyl)phenyl)nortropanes: candidate radioligands for in vivo imaging of the serotonin transporter with positron emission tomography” (J Med Chem, 2008)

Assays:
Caudate [1] = assay: Drug uptake in anesthetized cynomolgus monkey brain caudate after 1.5 mins postinjection; type: ADME, organism-based, Macaca fascicularis, Caudate nucleus; conditions: in vivo, 0.025 h
Midbrain [2] = assay: Drug uptake in anesthetized cynomolgus monkey brain midbrain after 185 mins postinjection; type: ADME, organism-based, Macaca fascicularis; conditions: in vivo
[3] = Drug uptake in anesthetized cynomolgus monkey brain occipital lobe after 75 mins postinjection; type: ADME, organism-based, Macaca fascicularis; conditions: in vivo, 1.25 h
[4] = Ratio of drug uptake in midbrain to cerebellum in anesthetized cynomolgus monkey after 125 mins postinjection; type: ADME, organism-based, Macaca fascicularis; conditions: in vivo
[5] = Ratio of drug uptake in midbrain to cerebellum in anesthetized cynomolgus monkey after 9.5 mins postinjection; type: ADME, organism-based, Macaca fascicularis; conditions: in vivo
[6] = Ratio of drug uptake in medulla to cerebellum in anesthetized cynomolgus monkey after 35 mins postinjection; type: ADME, organism-based, Macaca fascicularis; conditions: in vivo
[7] = Drug uptake in anesthetized cynomolgus monkey brain cerebellum after 12.5 mins postinjection; type: ADME, organism-based, Macaca fascicularis; conditions: in vivo
[8] = Drug uptake in anesthetized cynomolgus monkey brain frontal lobe after 3.5 mins postinjection; type: ADME, organism-based, Macaca fascicularis; conditions: in vivo
[9] = Drug uptake in anesthetized cynomolgus monkey brain cerebellum after 22.5 mins postinjection; type: ADME, organism-based, Macaca fascicularis; conditions: in vivo, 0.375 h
Medulla [10] = assay: Drug uptake in anesthetized cynomolgus monkey brain medulla after 3.5 mins postinjection; type: ADME, organism-based, Macaca fascicularis; conditions: in vivo
Medulla [11] = assay: Drug uptake in anesthetized cynomolgus monkey brain medulla after 135 mins postinjection; type: ADME, organism-based, Macaca fascicularis; conditions: in vivo, 2.25 h
[12] = Drug uptake in anesthetized cynomolgus monkey brain cerebellum after 6.5 mins postinjection; type: ADME, organism-based, Macaca fascicularis; conditions: in vivo
Medulla [13] = assay: Drug uptake in anesthetized cynomolgus monkey brain medulla after 27.5 mins postinjection; type: ADME, organism-based, Macaca fascicularis; conditions: in vivo
[14] = Ratio of drug uptake in occipital lobe to cerebellum in anesthetized cynomolgus monkey after 135 mins postinjection; type: ADME, organism-based, Macaca fascicularis; conditions: in vivo, 2.25 h
[15] = Drug uptake in anesthetized cynomolgus monkey brain frontal lobe after 155 mins postinjection; type: ADME, organism-based, Macaca fascicularis; conditions: in vivo
[16] = Drug uptake in anesthetized cynomolgus monkey brain occipital lobe after 165 mins postinjection; type: ADME, organism-based, Macaca fascicularis; conditions: in vivo, 2.75 h
Caudate [17] = assay: Drug uptake in anesthetized cynomolgus monkey brain caudate after 15.5 mins postinjection; type: ADME, organism-based, Macaca fascicularis, Caudate nucleus; conditions: in vivo
[18] = Ratio of drug uptake in midbrain to cerebellum in anesthetized cynomolgus monkey after 27.5 mins postinjection; type: ADME, organism-based, Macaca fascicularis; conditions: in vivo
[19] = Ratio of drug uptake in medulla to cerebellum in anesthetized cynomolgus monkey after 165 mins postinjection; type: ADME, organism-based, Macaca fascicularis; conditions: in vivo, 2.75 h
[20] = Ratio of drug uptake in putamen to cerebellum in anesthetized cynomolgus monkey after 65 mins postinjection; type: ADME, organism-based, Macaca fascicularis; conditions: in vivo
Medulla [21] = assay: Drug uptake in anesthetized cynomolgus monkey brain medulla after 115 mins postinjection; type: ADME, organism-based, Macaca fascicularis; conditions: in vivo
Midbrain [22] = assay: Drug uptake in anesthetized cynomolgus monkey brain midbrain after 4.5 mins postinjection; type: ADME, organism-based, Macaca fascicularis; parameters: unit not given here; conditions: in vivo, 0.075 h
Putamen [23] = assay: Drug uptake in anesthetized cynomolgus monkey brain putamen after 45 mins postinjection; type: ADME, organism-based, Macaca fascicularis; parameters: unit not given here; conditions: in vivo, 0.75 h
[24] = Ratio of drug uptake in midbrain to cerebellum in anesthetized cynomolgus monkey after 225 mins postinjection; type: ADME, organism-based, Macaca fascicularis; conditions: in vivo, 3.75 h
Midbrain [25] = assay: Drug uptake in anesthetized cynomolgus monkey brain midbrain after 195 mins postinjection; type: ADME, organism-based, Macaca fascicularis; conditions: in vivo, 3.25 h
Midbrain [26] = assay: Drug uptake in anesthetized cynomolgus monkey brain midbrain after 225 mins postinjection; type: ADME, organism-based, Macaca fascicularis; conditions: in vivo, 3.75 h
[27] = Drug uptake in anesthetized cynomolgus monkey brain cerebellum after 195 mins postinjection; type: ADME, organism-based, Macaca fascicularis; conditions: in vivo, 3.25 h
Putamen [28] = assay: Drug uptake in anesthetized cynomolgus monkey brain putamen after 15.5 mins postinjection; type: ADME, organism-based, Macaca fascicularis; parameters: unit not given here; conditions: in vivo
Caudate [29] = assay: Drug uptake in anesthetized cynomolgus monkey brain caudate after 135 mins postinjection; type: ADME, organism-based, Macaca fascicularis, Caudate nucleus; conditions: in vivo, 2.25 h
Midbrain [30] = assay: Drug uptake in anesthetized cynomolgus monkey brain midbrain after 165 mins postinjection; type: ADME, organism-based, Macaca fascicularis; conditions: in vivo, 2.75 h
Midbrain [31] = assay: Drug uptake in anesthetized cynomolgus monkey brain midbrain after 115 mins postinjection; type: ADME, organism-based, Macaca fascicularis; parameters: unit not given here; conditions: in vivo
Thalamus [32] = assay: Drug uptake in anesthetized cynomolgus monkey brain thalamus after 105 mins postinjection; type: ADME, organism-based, Macaca fascicularis; parameters: unit not given here; conditions: in vivo, 1.75 h
Pons [33] = assay: Drug uptake in anesthetized cynomolgus monkey brain pons after 215 mins postinjection; type: ADME, organism-based, Macaca fascicularis; conditions: in vivo
Putamen [34] = assay: Drug uptake in anesthetized cynomolgus monkey brain putamen after 205 mins postinjection; type: ADME, organism-based, Macaca fascicularis; conditions: in vivo
[35] = Drug uptake in anesthetized cynomolgus monkey brain occipital lobe after 235 mins postinjection; type: ADME, organism-based, Macaca fascicularis; conditions: in vivo
Caudate [36] = assay: Drug uptake in anesthetized cynomolgus monkey brain caudate after 0.5 mins postinjection; type: ADME, organism-based, Macaca fascicularis, Caudate nucleus; conditions: in vivo
Medulla [37] = assay: Drug uptake in anesthetized cynomolgus monkey brain medulla after 195 mins postinjection; type: ADME, organism-based, Macaca fascicularis; conditions: in vivo, 3.25 h
Midbrain [38] = assay: Drug uptake in anesthetized cynomolgus monkey brain midbrain after 6.5 mins postinjection; type: ADME, organism-based, Macaca fascicularis; parameters: unit not given here; conditions: in vivo
[39] = Ratio of drug uptake in occipital lobe to cerebellum in anesthetized cynomolgus monkey after 195 mins postinjection; type: ADME, organism-based, Macaca fascicularis; conditions: in vivo, 3.25 h
Thalamus [40] = assay: Drug uptake in anesthetized cynomolgus monkey brain thalamus after 165 mins postinjection; type: ADME, organism-based, Macaca fascicularis; parameters: unit not given here; conditions: in vivo, 2.75 h
Pons [41] = assay: Drug uptake in anesthetized cynomolgus monkey brain pons after 15.5 mins postinjection; type: ADME, organism-based, Macaca fascicularis; conditions: in vivo
Thalamus [42] = assay: Drug uptake in anesthetized cynomolgus monkey brain thalamus after 27.5 mins postinjection; type: ADME, organism-based, Macaca fascicularis; parameters: unit not given here; conditions: in vivo
Caudate [43] = assay: Drug uptake in anesthetized cynomolgus monkey brain caudate after 9.5 mins postinjection; type: ADME, organism-based, Macaca fascicularis, Caudate nucleus; conditions: in vivo
[44] = Ratio of drug uptake in caudate to cerebellum in anesthetized cynomolgus monkey after 12.5 mins postinjection; type: ADME, organism-based, Macaca fascicularis; conditions: in vivo
Midbrain [45] = assay: Drug uptake in anesthetized cynomolgus monkey brain midbrain after 205 mins postinjection; type: ADME, organism-based, Macaca fascicularis; conditions: in vivo
[46] = Ratio of drug uptake in medulla to cerebellum in anesthetized cynomolgus monkey after 18.5 mins postinjection; type: ADME, organism-based, Macaca fascicularis; conditions: in vivo
[47] = Drug uptake in anesthetized cynomolgus monkey brain frontal lobe after 12.5 mins postinjection; type: ADME, organism-based, Macaca fascicularis; conditions: in vivo
Caudate [48] = assay: Drug uptake in anesthetized cynomolgus monkey brain caudate after 225 mins postinjection; type: ADME, organism-based, Macaca fascicularis, Caudate nucleus; conditions: in vivo, 3.75 h
Midbrain [49] = assay: Drug uptake in anesthetized cynomolgus monkey brain midbrain after 0.5 mins postinjection; type: ADME, organism-based, Macaca fascicularis; parameters: unit not given here; conditions: in vivo
Thalamus [50] = assay: Drug uptake in anesthetized cynomolgus monkey brain thalamus after 18.5 mins postinjection; type: ADME, organism-based, Macaca fascicularis; parameters: unit not given here; conditions: in vivo
Caudate [51] = assay: Drug uptake in anesthetized cynomolgus monkey brain caudate after 175 mins postinjection; type: ADME, organism-based, Macaca fascicularis, Caudate nucleus; conditions: in vivo
Pons [52] = assay: Drug uptake in anesthetized cynomolgus monkey brain pons after 225 mins postinjection; type: ADME, organism-based, Macaca fascicularis; conditions: in vivo, 3.75 h
[53] = Ratio of drug uptake in occipital lobe to cerebellum in anesthetized cynomolgus monkey after 0.5 mins postinjection; type: ADME, organism-based, Macaca fascicularis; conditions: in vivo
Thalamus [54] = assay: Drug uptake in anesthetized cynomolgus monkey brain thalamus after 225 mins postinjection; type: ADME, organism-based, Macaca fascicularis; parameters: unit not given here; conditions: in vivo, 3.75 h
Thalamus [55] = assay: Drug uptake in anesthetized cynomolgus monkey brain thalamus after 95 mins postinjection; type: ADME, organism-based, Macaca fascicularis; parameters: unit not given here; conditions: in vivo
[56] = Drug uptake in anesthetized cynomolgus monkey brain cerebellum after 235 mins postinjection; type: ADME, organism-based, Macaca fascicularis; conditions: in vivo
[57] = Ratio of drug uptake in pons to cerebellum in anesthetized cynomolgus monkey after 35 mins postinjection; type: ADME, organism-based, Macaca fascicularis; conditions: in vivo
[58] = Ratio of drug uptake in occipital lobe to cerebellum in anesthetized cynomolgus monkey after 18.5 mins postinjection; type: ADME, organism-based, Macaca fascicularis; conditions: in vivo
Putamen [59] = assay: Drug uptake in anesthetized cynomolgus monkey brain putamen after 185 mins postinjection; type: ADME, organism-based, Macaca fascicularis; conditions: in vivo
Medulla [60] = assay: Drug uptake in anesthetized cynomolgus monkey brain medulla after 155 mins postinjection; type: ADME, organism-based, Macaca fascicularis; conditions: in vivo
Medulla [61] = assay: Drug uptake in anesthetized cynomolgus monkey brain medulla after 22.5 mins postinjection; type: ADME, organism-based, Macaca fascicularis; conditions: in vivo, 0.375 h
[62] = Ratio of drug uptake in pons to cerebellum in anesthetized cynomolgus monkey after 195 mins postinjection; type: ADME, organism-based, Macaca fascicularis; conditions: in vivo, 3.25 h
[63] = Ratio of drug uptake in occipital lobe to cerebellum in anesthetized cynomolgus monkey after 205 mins postinjection; type: ADME, organism-based, Macaca fascicularis; conditions: in vivo
Thalamus [64] = assay: Drug uptake in anesthetized cynomolgus monkey brain thalamus after 15.5 mins postinjection; type: ADME, organism-based, Macaca fascicularis; parameters: unit not given here; conditions: in vivo
[65] = Drug uptake in anesthetized cynomolgus monkey brain frontal lobe after 165 mins postinjection; type: ADME, organism-based, Macaca fascicularis; conditions: in vivo, 2.75 h
Thalamus [66] = assay: Drug uptake in anesthetized cynomolgus monkey brain thalamus after 195 mins postinjection; type: ADME, organism-based, Macaca fascicularis; conditions: in vivo, 3.25 h
Putamen [67] = assay: Drug uptake in anesthetized cynomolgus monkey brain putamen after 155 mins postinjection; type: ADME, organism-based, Macaca fascicularis; conditions: in vivo

## O=C(OCCC[18F])C1C2CCC(CC1c1cccc(/C=C\I)c1)N2 (configuration not stated)
Caudate [1]
  Drug uptake: 0.16
Midbrain [2]
  Drug uptake: 4.05
[3]
  Drug uptake: 3.68
[4]
  Ratio: 1.6
[5]
  Ratio: 0.9
[6]
  Ratio: 1.1
[7]
  Drug uptake: 4.52
[8]
  Drug uptake: 0.83
[9]
  Drug uptake: 4.78
Medulla [10]
  Drug uptake: 2.2
Medulla [11]
  Drug uptake: 4.5
[12]
  Drug uptake: 3.91
Medulla [13]
  Drug uptake: 5.08
[14]
  Ratio: 1.1
[15]
  Drug uptake: 2.33
[16]
  Drug uptake: 2.59
Caudate [17]
  Drug uptake: 3.34
[18]
  Ratio: 1
[19]
  Ratio: 1.9
[20]
  Ratio: 1.2
Medulla [21]
  Drug uptake: 4.59
Midbrain [22]
  Drug uptake: 2.42
Putamen [23]
  Drug uptake: 5.05
[24]
  Ratio: 2
Midbrain [25]
  Drug uptake: 3.85
Midbrain [26]
  Drug uptake: 3.76
[27]
  Drug uptake: 2.16
Putamen [28]
  Drug uptake: 4.27
Caudate [29]
  Drug uptake: 3.34
Midbrain [30]
  Drug uptake: 4.26
Midbrain [31]
  Drug uptake: 4.76
Thalamus [32]
  Drug uptake: 4.44
Pons [33]
  Drug uptake: 3.11
Putamen [34]
  Drug uptake: 3.31
[35]
  Drug uptake: 1.99
Caudate [36]
  Drug uptake: 0.01
Medulla [37]
  Drug uptake: 3.78
Midbrain [38]
  Drug uptake: 3.41
[39]
  Ratio: 1.1
Thalamus [40]
  Drug uptake: 3.67
Pons [41]
  Drug uptake: 3.62
Thalamus [42]
  Drug uptake: 4.66
Caudate [43]
  Drug uptake: 2.7
[44]
  Ratio: 0.7
Midbrain [45]
  Drug uptake: 3.86
[46]
  Ratio: 1
[47]
  Drug uptake: 2.24
Caudate [48]
  Drug uptake: 2.46
Midbrain [49]
  Drug uptake: 0.01
Thalamus [50]
  Drug uptake: 4.22
Caudate [51]
  Drug uptake: 2.83
Pons [52]
  Drug uptake: 3.11
[53]
  Ratio: 0.8
Thalamus [54]
  Drug uptake: 2.83
Thalamus [55]
  Drug uptake: 4.52
[56]
  Drug uptake: 1.93
[57]
  Ratio: 0.9
[58]
  Ratio: 0.8
Putamen [59]
  Drug uptake: 3.51
Medulla [60]
  Drug uptake: 4.09
Medulla [61]
  Drug uptake: 4.94
[62]
  Ratio: 1.5
[63]
  Ratio: 1.2
Thalamus [64]
  Drug uptake: 4.11
[65]
  Drug uptake: 2.08
Thalamus [66]
  Drug uptake: 3.2
Putamen [67]
  Drug uptake: 3.8
